# From PubChem BioAssay AID330 (DTP/NCI, 2004)
# Values joined by “and” are separate entries in the source; they are usually repeats but may differ in a detail not shown here. Identical values can stand only once. Toxic doses and inconclusive results are not listed. Peptide text beside a SMILES is read from it. * marks the point of attachment. Trt = c1ccc(C(c2ccccc2)(c2ccccc2)*)cc1; Benzhydryl = c1ccc(C(c2ccccc2)*)cc1; Cbz = O=C(OCc1ccccc1)*
# Tested on: P388 leukemia ip, CD2F1 mice, survival T/C
# Test: NCI In Vivo Anticancer Drug Screen. Data for tumor model P388 Leukemia (intraperitoneal) in CD2F1 (CDF1) mice
# Details: endpoint: median survival time, higher = longer survival
# Method in brief: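 Mice carrying the transplanted tumor received test compound or vehicle. Survival was recorded in each group, and the value is the treated-group measurement divided by that of the vehicle-treated control group.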
# [1] = dose: 50.0 mg/kg/injection, schedule: Q01DX009 (ip), vehicle: saline with Tween-80
# [2] = dose: 100.0 mg/kg/injection, schedule: Q01DX009 (ip), vehicle: saline with Tween-80
# [3] = dose: 100.0 mg/kg/injection, schedule: Q04DX003 (ip), vehicle: saline
# [4] = dose: 200.0 mg/kg/injection, schedule: Q01DX009 (ip), vehicle: saline with Tween-80
# [5] = dose: 200.0 mg/kg/injection, schedule: Q04DX003 (ip), vehicle: saline
# [6] = dose: 12.5 mg/kg/injection, schedule: Q01DX009 (ip), vehicle: saline
# [7] = dose: 25.0 mg/kg/injection, schedule: Q01DX009 (ip), vehicle: saline
# [8] = dose: 50.0 mg/kg/injection, schedule: Q01DX009 (ip), vehicle: saline
# [9] = dose: 100.0 mg/kg/injection, schedule: Q01DX009 (ip), vehicle: saline
# [10] = dose: 50.0 mg/kg/injection, schedule: Q01DX005 (ip), vehicle: saline with Tween-80
# [11] = dose: 100.0 mg/kg/injection, schedule: Q01DX005 (ip), vehicle: saline with Tween-80
# [12] = dose: 200.0 mg/kg/injection, schedule: Q01DX005 (ip), vehicle: saline with Tween-80
# [13] = dose: 6.25 mg/kg/injection, schedule: Q01DX009 (ip), vehicle: saline
# [14] = dose: 12.5 mg/kg/injection, schedule: Q01DX005 (ip), vehicle: saline with Tween-80
# [15] = dose: 25.0 mg/kg/injection, schedule: Q01DX005 (ip), vehicle: saline with Tween-80
# [16] = dose: 200.0 mg/kg/injection, schedule: Q01DX009 (ip), vehicle: saline
# [17] = dose: 25.0 mg/kg/injection, schedule: Q01DX009 (ip), vehicle: saline with Tween-80
smiles,measurement,setting,value
CC(=O)Nn1c(N)nc2cc(C)ccc21,T/C,"dose: 200.0 mg/kg/injection, schedule: Q01DX001 (ip), vehicle: saline",98 % of control
same,T/C,"dose: 400.0 mg/kg/injection, schedule: Q01DX001 (ip), vehicle: saline",93 % of control
O=C(NC(Cc1ccccc1)C(=O)O)OCCc1ccccn1 (stereo not drawn),T/C,"dose: 60.0 mg/kg/injection, schedule: Q01DX005 (ip), vehicle: Klucel (hydroxypropylcellulose) (HPC)",104 % of control
same,T/C,"dose: 120.0 mg/kg/injection, schedule: Q01DX005 (ip), vehicle: Klucel (hydroxypropylcellulose) (HPC)",92 % of control
same,T/C,"dose: 240.0 mg/kg/injection, schedule: Q01DX005 (ip), vehicle: Klucel (hydroxypropylcellulose) (HPC)",102 % of control
Cn1c(Cl)cc2nc3ccccc3n2c1=O,T/C,"dose: 60.0 mg/kg/injection, schedule: Q01DX005 (ip), vehicle: saline with Tween-80",96 % of control
same,T/C,"dose: 120.0 mg/kg/injection, schedule: Q01DX005 (ip), vehicle: saline with Tween-80",94 % of control
same,T/C,"dose: 240.0 mg/kg/injection, schedule: Q01DX005 (ip), vehicle: saline with Tween-80",100 % of control
CCOC(=O)C(=CNc1cc(C)ccn1)C(=O)OCC,T/C,[1],104 % of control
same,T/C,[2],95 % of control
same,T/C,[3],95 % of control
same,T/C,[4],100 % of control
same,T/C,[5],100 % of control
OC1Cc2ccccc2CC1NC1CCCCC1 (stereo not drawn),T/C,"dose: 50.0 mg/kg/injection, schedule: Q01DX005 (ip), vehicle: saline",108 % of control
same,T/C,"dose: 100.0 mg/kg/injection, schedule: Q01DX005 (ip), vehicle: saline",98 % of control
CCOC(O)C(F)(F)F (stereo not drawn),T/C,[6],105 % of control
same,T/C,[7],105 % of control
same,T/C,[8],100 % of control
same,T/C,[3],100 % of control
same,T/C,[5],109 % of control
c1cc[n+](CCC2OCCO2)cc1,T/C,[6],109 % of control
same,T/C,[7],109 % of control
same,T/C,[8],100 % of control
same,T/C,[9],108 % of control
CCOC(=O)/C=C/C(=O)NNS(=O)(=O)CC(N)C(=O)O (stereo not drawn),T/C,"dose: 100.0 mg/kg/injection, schedule: Q04DX003 (ip), vehicle: acid diluted with saline",105 % of control
same,T/C,"dose: 200.0 mg/kg/injection, schedule: Q04DX003 (ip), vehicle: acid diluted with saline",109 % of control
O=C(O)C1CN(C(=O)OCC2c3ccccc3-c3ccccc32)CS1 (stereo not drawn),T/C,[10],94 % of control
same,T/C,[11],94 % of control
same,T/C,[12],92 % of control
CC(C)CC(NC(=O)CNC(=O)/C=C/c1ccco1)C(N)=O (stereo not drawn),T/C,[10],106 % of control
same,T/C,[11],102 % of control
same,T/C,[12],90 % of control
COC(=O)C(Cc1ccccc1)NC(=O)C(Cc1ccccc1)NC(=O)CNC(=O)C(CSC(c1ccccc1)c1ccccc1)NC(=O)C(CSC(c1ccccc1)(c1ccccc1)c1ccccc1)NC(=O)OCc1ccccc1 (stereo not drawn) (Cbz-C(Trt)C(Benzhydryl)GFF-OMe; configuration not given here),T/C,"dose: 100.0 mg/kg/injection, schedule: Q04DX002 (ip), vehicle: Klucel (hydroxypropylcellulose) (HPC)",88 % of control
same,T/C,"dose: 200.0 mg/kg/injection, schedule: Q04DX002 (ip), vehicle: Klucel (hydroxypropylcellulose) (HPC)",98 % of control
same,T/C,"dose: 400.0 mg/kg/injection, schedule: Q04DX002 (ip), vehicle: Klucel (hydroxypropylcellulose) (HPC)",98 % of control
O=C1CCSC(=O)N1c1ccccc1,T/C,[10],108 % of control
same,T/C,[11],100 % of control
same,T/C,[12],105 % of control
COc1ccc2nc(-c3ccccn3)ccc2c1,T/C,"dose: 25.0 mg/kg/injection, schedule: Q01DX009 (ip), vehicle: distilled water + Tween-80",106 % of control
same,T/C,"dose: 50.0 mg/kg/injection, schedule: Q01DX009 (ip), vehicle: distilled water + Tween-80",106 % of control
same,T/C,"dose: 100.0 mg/kg/injection, schedule: Q01DX009 (ip), vehicle: distilled water + Tween-80",101 % of control
same,T/C,"dose: 200.0 mg/kg/injection, schedule: Q01DX009 (ip), vehicle: distilled water + Tween-80",93 % of control
same,T/C,"dose: 400.0 mg/kg/injection, schedule: Q01DX009 (ip), vehicle: distilled water + Tween-80",92 % of control
CC(C)[CH2][Ge]([Cl])([Cl])[Cl],T/C,"dose: 0.78 mg/kg/injection, schedule: Q01DX009 (ip), vehicle: saline",103 % of control
same,T/C,"dose: 1.56 mg/kg/injection, schedule: Q01DX009 (ip), vehicle: saline",106 % of control
same,T/C,"dose: 3.12 mg/kg/injection, schedule: Q01DX009 (ip), vehicle: saline",94 % of control
same,T/C,[13],119 % of control
O=C1c2cccc3cc([N+](=O)[O-])cc(c23)C(=O)N1Cc1cccnc1,T/C,"dose: 6.25 mg/kg/injection, schedule: Q01DX005 (ip), vehicle: saline with Tween-80",100 % of control
same,T/C,[14],96 % of control
same,T/C,[15],92 % of control
same,T/C,[11],92 % of control
same,T/C,[12],101 % of control
COc1ccccc1C1c2cc3c(cc2OC(C)(O)C1C)OCO3 (stereo not drawn),T/C,[10],100 % of control
same,T/C,[11],97 % of control
same,T/C,[12],96 % of control
C1OC1CO[C@@H]1CO[C@H]2[C@@H]1OC[C@H]2OCC1CO1 (stereo partly drawn),T/C,[6],120 % of control
same,T/C,[9],194 % of control
same,T/C,"dose: 100.0 mg/kg/injection, schedule: Q01DX009 (ip), vehicle: suspension in saline",163 % of control
same,T/C,[16],192 % of control
same,T/C,"dose: 400.0 mg/kg/injection, schedule: Q01DX009 (ip), vehicle: saline with Tween-80",213 % of control
same,T/C,"dose: 400.0 mg/kg/injection, schedule: Q01DX009 (ip), vehicle: saline",94 % of control
same,T/C,"dose: 400.0 mg/kg/injection, schedule: Q01DX009 (ip), vehicle: suspension in saline",100 % of control
same,T/C,"dose: 400.0 mg/kg/injection, schedule: Q04DX003 (ip), vehicle: saline with Tween-80",186 % of control
same,T/C,"dose: 600.0 mg/kg/injection, schedule: Q04DX003 (ip), vehicle: saline with Tween-80",200 % of control
NS(=O)(=O)c1cccnc1Nc1ccc(Cl)c(Cl)c1,T/C,[8],86 % of control
same,T/C,[9],93 % of control
same,T/C,[16],101 % of control
C1=CSC(=C2SC=CS2)S1,T/C,"dose: 6.25 mg/kg/injection, schedule: Q01DX009 (ip), vehicle: saline with Tween-80",106 % of control
same,T/C,"dose: 12.5 mg/kg/injection, schedule: Q01DX009 (ip), vehicle: saline with Tween-80",106 % of control and 97 % of control
same,T/C,[17],102 % of control and 110 % of control
same,T/C,[1],100 % of control and 106 % of control and 114 % of control
same,T/C,[2],108 % of control
same,T/C,[4],100 % of control
CC12CCC3c4ccc(O)cc4CCC3C1C/C(=C\C(=O)O)C2O (stereo not drawn),T/C,"dose: 25.0 mg/kg/injection, schedule: Q04DX003 (ip), vehicle: Klucel (hydroxypropylcellulose) (HPC)",116 % of control
same,T/C,"dose: 50.0 mg/kg/injection, schedule: Q04DX003 (ip), vehicle: Klucel (hydroxypropylcellulose) (HPC)",100 % of control and 104 % of control and 110 % of control
same,T/C,"dose: 100.0 mg/kg/injection, schedule: Q04DX003 (ip), vehicle: Klucel (hydroxypropylcellulose) (HPC)",100 % of control (2×) and 111 % of control
same,T/C,"dose: 200.0 mg/kg/injection, schedule: Q04DX003 (ip), vehicle: Klucel (hydroxypropylcellulose) (HPC)",99 % of control and 100 % of control and 121 % of control
O=C1CC2C=CC2C1 (stereo not drawn),T/C,[13],113 % of control
same,T/C,[6],103 % of control
same,T/C,[7],103 % of control
same,T/C,[4],95 % of control
Cc1cc(=O)[nH]c2[nH][nH]c(=O)c12,T/C,[17],93 % of control
same,T/C,[1],93 % of control
same,T/C,[2],105 % of control
same,T/C,[4],90 % of control
C1CN2CCN1CC2.[Cl][Pt]([Cl])[Cl],T/C,"dose: 100.0 mg/kg/injection, schedule: Q04DX002 (ip), vehicle: saline with Tween-80",117 % of control
same,T/C,"dose: 200.0 mg/kg/injection, schedule: Q04DX002 (ip), vehicle: saline with Tween-80",117 % of control
CC(C)S(=O)(=O)c1ccc(Cl)cc1[N+](=O)[O-],T/C,"dose: 50.0 mg/kg/injection, schedule: Q01DX009 (ip), vehicle: Klucel (hydroxypropylcellulose) (HPC)",100 % of control
same,T/C,"dose: 100.0 mg/kg/injection, schedule: Q01DX009 (ip), vehicle: Klucel (hydroxypropylcellulose) (HPC)",99 % of control
same,T/C,"dose: 200.0 mg/kg/injection, schedule: Q01DX009 (ip), vehicle: Klucel (hydroxypropylcellulose) (HPC)",99 % of control
CCOC(=O)c1sc(=S)n(C)c1C,T/C,[14],100 % of control
same,T/C,[15],103 % of control
same,T/C,[10],102 % of control and 104 % of control
